Assay results taken from publication PMC4417150, “Selective inhibition of miR-21 by phage display screened peptide” (Nucleic Acids Research, 2015).
Peptide text beside a SMILES is read from it.

What follows are compounds tested on MCF-7 cells (assay: Quantitative uptake of FAM-conjugated peptide (flow cytometry)). Details: FAM-conjugated peptides 1, 5, 10 µM; MCF-7, serum free media, 6 h, 37°C; FACS; duplicate.
Assay type: in vitro ADME
Procedure: Carboxyfluorescein (FAM)-conjugated peptide was added onto MCF-7 cells with ∼80% confluence in serum free media. Cells were then incubated at 37°C humidified incubator (5% CO2) for 6 h. Cells were washed twice with ice cold PBS containing 1mg/ml heparin, followed by one wash with trypan blue and two washes with ice cold PBS. Cells were trypsinised, followed by centrifugation at 700 g for 5 min at 4°C. Cell pellet was resuspended in ice cold PBS and FACS analysis was done in BD Accuri instrument. 10000 counts per sample was analyzed using BD Accuri C6 software.
As the peptide contains three proline residues, we reasoned that the peptide may have cell penetrating properties. To check the cell penetrating property, we FAM conjugated the peptides and monitored their uptake by flow cytometry.
For `CC(C)C[C@H](NC(=O)[C@H](C)N)C(=O)N[C@@H](Cc1c[nH]c2ccccc12)C(=O)N1CCC[C@H]1C(=O)N1CCC[C@H]1C(=O)N[C@@H](CC(N)=O)C(=O)N[C@@H](CC(C)C)C(=O)N[C@@H](Cc1c[nH]cn1)C(=O)N[C@@H](C)C(=O)N[C@@H](Cc1c[nH]c2ccccc12)C(=O)N[C@H](C(=O)N1CCC[C@H]1C(=O)O)C(C)C` [wild-type peptide] (H-ALWPPNLHAWVP-OH), the “cell penetrating potential (uptake)” value was “clearly indicated cell penetrating potential”. In the case of PVWAHLNPPWLA [reverse mutant], the “cell penetrating potential (uptake)” value is reported as “clearly indicated cell penetrating potential”. With LPPAPWNWAHVL [scrambled mutant] the “cell penetrating potential (uptake)” value was “clearly indicated cell penetrating potential”.
